The source of these data is ChEMBL document CHEMBL4825696, “Development of photocontrolled BRD4 PROTACs for tongue squamous cell carcinoma (TSCC)” (Eur J Med Chem, 2021).

Assay [1] in a line: Induction of apoptosis in human HN-6 cells assessed as necrotic cells at 5 uM measured after 1 hr by AnnexinV-FITC/propidium iodide staining based flow cytometry analysis (reference value: 3.37%). Format: functional.
Assay [2] is described as follows: Induction of apoptosis in human HN-6 cells assessed as late apoptotic cells at 5 uM measured after 1 hr by AnnexinV-FITC/propidium iodide staining based flow cytometry analysis (reference value: 1.46%). It is filed as functional.
The target of assay [3] is T1, Protein cereblon/Bromodomain-containing protein 4 (Homo sapiens) (UniProt O60885+Q96SW2). Description: PhotoPROTAC activity at CRBN/BRD4 in human HEK293T cells assessed as BRD4 degradation by measuring downregulation of BRD4 level at 3 uM pretreated for 1 hr followed by irradiation with 365 nm UVA light for 15 mins and measured after 24 hrs by Western blot analysis. It is filed as cell-based. The settings on record: time 1515.0 min.

Assay [4] addresses T1, Protein cereblon/Bromodomain-containing protein 4 (Homo sapiens). As to the kind of experiment: PhotoPROTAC activity at CBRN/BRD4 in human HEK293T cells assessed as degradation of BRD4 irradiated with 365 nm UVA light for 15 mins followed by incubation with compound for 30 mins by Fluorescence polarization competitive binding assay. It is filed as cell-based.
The nature of assay [5]: Photolysis of compound in DMSO-d6 assessed as 2-((S)-4-(4-chlorophenyl)-2,3,9-trimethyl-6H-thieno[3,2-f][1,2,4]triazolo[4,3a][1,4]diazepin-6-yl)-N-(4-(2-((2-(2,6-dioxopiperidin-3-yl)-1,3-dioxoisoindolin-4-yl)oxy)acetamido)butyl)acetamide formation at 10 mM incubated for 60 mins under 365 nm UVA irradiation by 1H-NMR analysis. Format: functional.
Assay [6] can be described thus: Induction of apoptosis in human HN-6 cells assessed as necrotic cells at 5 uM irradiated with 365 nm UVA light for 15 mins followed by incubation with compound for 24 hrs by AnnexinV-FITC/propidium iodide staining based flow cytometry analysis (reference value: 2.7%). Format: functional.
A short description of assay [7]: Induction of apoptosis in human HN-6 cells assessed as viable cells at 5 uM measured after 1 hr by AnnexinV-FITC/propidium iodide staining based flow cytometry analysis (reference value: 93.62%). Format: functional. Particulars: read-out: Activity.
Assay [8] can be described thus: Induction of apoptosis in human HN-6 cells assessed as late apoptotic cells at 5 uM irradiated with 365 nm UVA light for 15 mins followed by incubation with compound for 24 hrs by AnnexinV-FITC/propidium iodide staining based flow cytometry analysis (Rvb =1.69%). Format: functional.
A short description of assay [9]: Induction of apoptosis in human HN-6 cells assessed as viable cells at 5 uM irradiated with 365 nm UVA light for 15 mins followed by incubation with compound for 24 hrs by AnnexinV-FITC/propidium iodide staining based flow cytometry analysis (reference value: 90.31%). Format: functional. The settings on record: HN-6, light or radiation study, read-out: Activity.

Assay [10] has as its system HN-6. As to the kind of experiment: Antiproliferative activity against human HN-6 cells assessed as reduction in cell viability irradiated with 365 nm UVA light for 15 mins followed by incubation with compound for 24 hrs by CCK-8 assay. Format: functional, cell-based.
Assay [11] is described as follows: Photolysis of compound in acetonitrile assessed as 2-((S)-4-(4-chlorophenyl)-2,3,9-trimethyl-6H-thieno[3,2-f][1,2,4]triazolo[4,3a][1,4]diazepin-6-yl)-N-(4-(2-((2-(2,6-dioxopiperidin-3-yl)-1,3-dioxoisoindolin-4-yl)oxy)acetamido)butyl)acetamide formation at 40 uM incubated for 60 mins under 365 nm UVA irradiation by HPLC analysis. Format: functional.
Assay [12] deals with HN-6. Description: Antitumour activity against human HN-6 cells xenografted in zebrafish embryo assessed as inhibition of tumour growth at 50 uM measured after 72 hrs by microscopic method. It is filed as functional.
The nature of assay [13]: Induction of apoptosis in human HN-6 cells assessed as early apoptotic cells at 5 uM measured after 1 hr by AnnexinV-FITC/propidium iodide staining based flow cytometry analysis (Rvb =1.54%). It is filed as functional.
For assay [14], the target named is T1, Protein cereblon/Bromodomain-containing protein 4 (Homo sapiens). As to the kind of experiment: PhotoPROTAC activity at CRBN/BRD4 in human HEK293T cells assessed as BRD4 degradation by measuring downregulation of c-Myc level pretreated for 1 hr followed by irradiation with 365 nm UVA light for 15 mins and measured after 24 hrs by Western blot analysis. Format: cell-based. The settings on record: time 1515.0 min.

Assay [15] deals with HN-6. As to the kind of experiment: (§1) Antiproliferative activity against human HN-6 cells assessed as reduction in cell viability incubated for 24 hrs by CCK-8 assay. It is filed as functional, cell-based.
A short description of assay [16]: Photolysis of compound in acetonitrile assessed as 2-((S)-4-(4-chlorophenyl)-2,3,9-trimethyl-6H-thieno[3,2-f][1,2,4]triazolo[4,3a][1,4]diazepin-6-yl)-N-(4-(2-((2-(2,6-dioxopiperidin-3-yl)-1,3-dioxoisoindolin-4-yl)oxy)acetamido)butyl)acetamide formation at 40 uM incubated for 60 mins under 365 nm UVA irradiation by UV-Vis spectral analysis. Format: functional.
A short description of assay [17]: Induction of apoptosis in human HN-6 cells assessed as early apoptotic cells at 5 uM irradiated with 365 nm UVA light for 15 mins followed by incubation with compound for 24 hrs by AnnexinV-FITC/propidium iodide staining based flow cytometry analysis (reference value: 5.3%). It is filed as functional.
Assay [18] has as its system HN-6. As to the kind of experiment: Antitumour activity against human HN-6 cells xenografted in zebrafish embryo assessed as inhibition of tumour growth at 50 uM irradiated with 365 nm UVA light for 20 mins and measured after 3 days by microscopic method. Format: functional. Particulars: time 3.0 day.
Assay [19] can be described thus: Photolysis of compound in acetonitrile assessed as 2-(2,6-dioxo-3-piperidyl)isoindoline-1,3-dione formation at 40 uM incubated for 40 mins under 365 nm UVA irradiation by HPLC analysis. It is filed as functional.
Assay [20] is described as follows: Photolysis of compound in acetonitrile assessed as 2-(2,6-dioxo-3-piperidyl)isoindoline-1,3-dione formation at 40 uM incubated for 40 mins under 365 nm UVA irradiation by UV-Vis spectral analysis. Format: functional.
The target in assay [21] is T1, Protein cereblon/Bromodomain-containing protein 4 (Homo sapiens). Description: PROTAC activity at CRBN/BRD4 in human HEK293T cells assessed as BRD4 degradation by measuring downregulation of BRD4 level at 0.1 to 10 uM by western blot analysis. Format: cell-based. The settings on record: dose 0.1-10 µM.
In assay [22] the test system is HN-6. As to the kind of experiment: Antitumor activity against human HN-6 cells xenografted in nude mouse assessed as tumor growth inhibition at 50 mg/kg, ip administered every day for 2 weeks and measured every 2 days. Format: functional, organism-based.
Assay [23] in a line: as §1. Particulars: HN-6, 24 h. It is filed as functional, cell-based.
Assay [24] deals with T1, Protein cereblon/Bromodomain-containing protein 4 (Homo sapiens). Description: PROTAC activity at CRBN/BRD4 in human HEK293T cells assessed as BRD4 degradation by measuring downregulation of c-Myc level by western blot analysis. It is filed as cell-based.
Assay [25] shares this target. As to the kind of experiment: PROTAC activity at CBRN/BRD4 in human HEK293T cells assessed as degradation of BRD4 measured after 30 mins by Fluorescence polarization competitive binding assay. Format: cell-based.

Active and inactive are the calls of the source. No cut-off for these calls is given here.

On to `COc1cc(CN2C(=O)CCC(N3C(=O)c4cccc(OCC(=O)NCCCCNC(=O)C[C@@H]5N=C(c6ccc(Cl)cc6)c6c(sc(C)c6C)-n6c(C)nnc65)c4C3=O)C2=O)c([N+](=O)[O-])cc1OC` (stereo not given in full), for which the Activity in [1] was 2.55%; in assay [2] it was 4.05%; in assay [4], “Dose-Dependent Effect”; in assay [6] it was 4.24%; in [8], 8.35%; in assay [13], 10.85%. In addition, in assay [17], the Activity was found to be 19.29%. The outcome (in assay [3]; in the assay with HN-6 [10]; in [14]; in the assay with HN-6 [18]) was Active. Besides, the Drug metabolism result in assay [5], in assay [11] and in [16] was “Metabolite detected” throughout. The results for the viability at 5 µM in assay [7] and in assay [9] were 82.5% and 68.1%, respectively. The result in the assay with HN-6 [12] and in the assay with HN-6 [15] was inactive.

As for `COc1cc(CN2C(=O)CCC(N3C(=O)c4ccccc4C3=O)C2=O)c([N+](=O)[O-])cc1OC` (stereo not given), the Drug metabolism result in [19] and in assay [20] was “Metabolite detected” in each case.

As to `Cc1sc2c(c1C)C(c1ccc(Cl)cc1)=N[C@@H](CC(=O)NCCCCNC(=O)COc1cccc3c1C(=O)N(C1CCC(=O)NC1=O)C3=O)c1nnc(C)n1-2` (stereo not given in full), the Activity in [1] was 3%; in [2], 12.17%; in assay [13] it was 33.75%; in [25], “Dose-Dependent Effect”. Further, the viability at 5 µM in [7] was 51.1%. Also, the result (in assay [21]; in the assay on HN-6 [22]; with HN-6 [12]; in [24]) was Active. Besides, in [23], the IC50 worked out at 7.07 µM.
